This is an account of results in patent US20150359884A1, “MULTI-PHOTON ISOMERISATION OF COMBRETASTATINS AND THEIR USE IN THERAPY” (priority 2011, published 2015).

Series [1] in a line: Observed solubility in water. It is filed as physicochemical. The settings on record: aqueous solution, comparison in words.
Series [2] is described as follows: Fluorescence lifetimes in solvents, two-photon excitation with TCSPC. It is filed as physicochemical. The settings on record: 20° C., two-photon excitation 620-630 nm. Here is the method: Fluorescence lifetimes were determined using 2PE at 630 nm with the microscope TCSPC setup (overall time response of 25 ps fwhm) and produced the results shown in Table 1. […] Characterisation of the spectroscopic properties of these latter two compounds remains to be investigated further. […] In the very viscous environment provided by glycerol the lifetime increases further to 1180 ps. In the range of alkanols studied the lifetime is closely correlated with solvent viscosity as shown in the inset to FIG. 3. […] However it is clear that the measured lifetime has the potential to report on cellular environments in FLIM studies. For E-CA4F similar trends are observed, but the overall differences in both lifetimes and quantum yields over the range of solvents are rather less than for E-CA4. The fluorescence lifetimes of E-CA4F are confined to a narrower range having values ranging from 440 ps in methanol through 740 ps in hexane to 1070 ps in glycerol. The more pronounced solvent dependence for E-CA4 no doubt reflects the more polar nature of the molecule compared with E-CA4F. The relative polarities may be judged from the partition coefficients (P) calculated according to the method of Brown et al..

A short description of series [3]: Two-photon absorption cross section using reference fluorophore 9-chloroanthracene. It is filed as physicochemical. The settings on record: at 620 nm, DCM. An excerpt: Cell images were overlaid using Adobe Photoshop CS3.
Published cross sections for two photon absorption (σ2, the probability of an absorption process or photon interaction) typically show large variations depending on the method of measurement, using either the Z-scan method or a reference fluorophore, and the power range and pulse duration of the laser used for excitation. We have attempted to determine values of σ2 for E-CA4 and E-ACA4 using a reference fluorophore. 9-Chloroanthracene (9CIA) was selected as a standard fluorophore with an appropriate fluorescence spectrum and for which 2PE cross-sections are available. The values of σ2 at 620 nm for E-CA4 and E-CA4F in DCM were determined to be 2.1±0.5 and 2.75±0.6 GM units respectively. […] Values of σ2 at 620 nm for E-ACA and E-DMAC were both 5.7±1.2. These larger values may be consistent with some charge transfer character of the excitation of these compounds.

Series [4] in a line: Fluorescence quantum yields in solvents, UV one-photon excitation. It is filed as physicochemical. The settings on record: 20° C., 290-300 nm excitation. As to the method: Absorption spectra were measured in either a Perkin Elmer Lambda 25 or 950 spectrophotometer. Fluorescence measurements were made with either a Spex Fluoromax or Varian Cary Eclipse spectrofluorimeter using the spectral correction curves supplied by the manufacturers. Fluorescence quantum yields with UV (one-photon) excitation were determined using either 2-aminopyridine (Φref 0.6 [7]) or 9-chloroanthracene (Φref 0.50 in dichloromethane, determined here relative to 9,10-diphenylanthracene in cyclohexane (Φref 0.97) and anthracene in ethanol (Φref 0.28 [8]) as standards. Fluorescence quantum yields were determined from the relative slopes of plots of integrated fluorescence intensity versus (1-10^−A) for samples having absorbance A≦0.1. The square of the refractive index (n^2) correction was applied when sample and reference compounds were in different solvents. Irradiation of the samples was minimized by the use of narrow excitation slits to reduce simultaneous photoisomerization.
The fluorescence quantum yields for E-CA4F were generally somewhat higher than for E-CA4.

A short description of series [5]: Isomerization by two-photon absorption at 590 nm in DMSO solution. It is filed as physicochemical. The settings on record: Z-CA4 1 mM in DMSO, two-photon excitation 590 nm. As to the method:
FIG. 11. […] (A) Power dependence of FI from E-CA4 (0.4 mM) versus laser power at the sample. (B) Percentage conversion of Z-CA4 to the E-isomer versus laser power at the sample, calculated from the measured FI from a solution of Z-CA4 (1 mM) and a series of calibration curves using solutions of E-CA4 at each laser power.
Using 2PE the photochemical effects occur within the femtolitre volume of excitation. […] At any one instant, the concentration of isomerized compound in the focal volume will represent a steady state achieved through the balance of diffusion from the focal volume and the rate of photochemical formation.
Calibration curves were constructed of FI versus E-CA4 concentration at each laser power. These were then compared with the FI from the two-photon experiment with Z-CA4 to estimate the concentration of E-CA4 formed within the focal volume.

Series [6] is described as follows: Picosecond time-resolved infrared (TRIR) spectroscopy of excited states. It is filed as physicochemical. The settings on record: dichloromethane, 266 nm excitation. Here is the method: The ultrafast time-resolved infrared (TRIR) experiments were performed on the ‘ULTRA’ laser system at the Science and Technology Facilities Council Rutherford Appleton Laboratory. The capabilities of the ULTRA instrument are described in detail elsewhere. Briefly, a chirped pulse amplified titanium:sapphire laser operating at 10 kHz repetition rate produced 40-80 fs duration pulses at a wavelength of 800 nm. The UV excitation pulse was generated from third harmonic generation of the 800 nm output of the amplifier with ˜50 fs duration at 266 nm, irradiating samples with a 1 μJ, 100 μm diameter beam. The mid-IR probe pulse was generated using ˜0.4 mJ of the 800 nm femtosecond output to pump an optical parametric amplifier, and difference frequency mixing of the signal and idler components. The mid-IR probe output pulses had ˜500 cm-1 bandwidth and ˜50 fs pulse duration. The UV pulses were polarized at a magic angle to the IR probe laser polarization. The timing between the pump and probe was performed using a PCcontrolled optical delay line. The sample in solution was placed between two 25 mm diameter CaF2 plates in a rasterscanned Harrick cell to limit irradiation of the sample by multiple pulses. The optical path of the sample between the two windows was controlled using a 100 μm PTFE spacer and the solution flowed using a peristaltic pump. The intensity of the transmitted mid-IR light was dispersed by a grating onto a pair of 128-element mercury-cadmium telluride array detectors (IR Associates), providing full (i.e. ˜500 cm-1) spectral coverage with every laser pulse. The overall instrument response time was ˜200 fs. A reference spectrum of the laser pulse (before the Harrick cell) was accumulated on a third, 64-element array detector and was used to remove the effects of laser fluctuations from the transient absorption data. Ground-state FTIR spectra were recorded using a Nicolet Avatar 360 spectrometer.
FIGS. 12 and 13 show the TRIR spectra of both isomers of CA4 following ultrafast electronic excitation using 266 nm, with the ground-state FTIR spectra shown beneath the time resolved data for comparison. To date there has been little characterization of combretastatins by infrared spectroscopy. However, the ground-state FTIR spectra have obvious similarities with stilbene and on this basis we assign the 1586/1581 and 1510/1509 cm-1 bands in E-CA4/Z-CA4 to the v8a ring stretches of the phenyl groups and v19a ring stretch with additional contributions from C—H in-plane bending. In the excited state spectra, there are negative absorption bands corresponding to bleaching of the ground-state absorptions and both the E- and Z-isomers are dominated by transient bands between 1350 and 1500 cm-1. At early times the transient bands show rapid shifting over about 10 cm-1 to higher wavenumbers associated with rapid ‘cooling’ of excess vibrational energy following electronic excitation as commonly observed in other molecular systems including DNA [26] and for the C═C stretching band of E-stilbene observed by time-resolved resonance Raman spectroscopy. It is also notable that for E-CA4 at pump-probe delays up to 20 ps, the intensities of the transient bands increase and this is most likely due to molecular rearrangements taking place lowering the overall symmetry of the molecule and increasing the cross-sections of these IR active modes. […]

The test system of the next series is cells. The settings on record: typical toxicity assays; cited from earlier work.

For the molecule `COc1ccc(/C=C/c2cc(OC)c(OC)c(OC)c2)cc1N` [E-ACA, (E)-1-(3′-Amino-4′-methoxyphenyl)-2-(3″,4″,5″-trimethoxyphenyl)ethene], the Solubility in water result in series [1] is on record as “more soluble in water than the other combretastatins studied here”. Also, the “Fluorescence lifetime τ” value in series [2] (DMSO) was 4.8 ns; in series [2] (EtOH, ne = non-exponential), “ne”; in series [2] (Ethylene glycol, ne = non-exponential), “ne”; in series [2] (Glycerol, ne = non-exponential), “ne”; in series [2] (Hexane) it was 1.65 ns; in series [2] (MeCN, ne = non-exponential) it was 3.6 ns. In addition, in series [2] (MeOH, ne = non-exponential), the “Fluorescence lifetime τ” value is reported as “ne”. Further, in series [3], the “Two photon absorption cross section σ2” value is 5.7±1.2 GM units. Moreover, the “Fluorescence quantum yield φ” value was determined as 0.43 in series [4] (DCM); 0.28 in series [4] (DMSO); 0.38 in series [4] (Hexane); 0.41 in series [4] (MeCN); 0.11 in series [4] (MeOH).

Regarding `COc1ccc(/C=C\c2cc(OC)c(OC)c(OC)c2)cc1O` [Z-CA4, combretastatin A4, reference compound], in series [5], the “Concentration of E-CA4 formed within the focal volume” value is “about 250 μM” and the “Conversion of the initial concentration of Z-CA4 to the E-isomer” value turned out to be 25%. Besides, in series [6], the “Excited state decay, longer lifetime (relaxed excited state)” value is given as 10.1±0.71 ps and the “Excited state decay, shorter lifetime (biexponential fit)” value is listed as 1.5±0.15 ps. For the same molecule, the “Concentrations required to kill cells” value with cells is listed as “nanomolar”.
